Experiments:
[1] = test system: rabbit red blood cells (RBC); assay: Rabbit red blood cell (RBC) hemolysis assay; assay type: cell-based
Description: Rabbit red blood cell (RBC) hemolysis assay. Rabbit RBCs from Lampire Biological Laboratories were used. Prior to preparing the RBCs, compound-containing PBS solutions were serially diluted into a 96-well plate (a final volume of 100 μL/well). The RBC lysis solution (Epicentre Biotechnology) was included as a positive control for hemolysis. For each assay, 1 mL of the RBC suspension was removed from the stock bottle and centrifuged for 2 minutes at 2000 rpm. The pelleted cells were resuspended in sterile PBS solution and centrifuged again. The cells were resuspended in PBS and diluted 5-fold into the same solution. 100 μL aliquots of RBCs were added into wells of a 96-well plate that contained an equal volume of a solution of compound in PBS. The plates were incubated for varying amounts of time depending on the microbial assay conditions to be emulated. For MIC-like conditions, plates were incubated for at least 17 hours at 30° C. or 37° C. For MSC-like conditions, the incubation time was either 2 hours or 6 hours at 30° C. or 37° C. During the incubation, un-lysed RBCs settled at the bottom of the wells. At the end of the incubation, 90 μL of the supernatant was transferred into the wells of a fresh 96-well plate, and the absorbance of the heme at 2=405 nm was measured.
To test the toxicity of DCAP against mammalian membranes, the hemolysis of rabbit red blood cells (RBC) was measured. These experiments were performed using conditions that closely mimicked the MIC and MSC assays. RBCs were treated with CCCP and DCAP at their MICs for the time periods used (17 hours) to determine the MIC of C. crescentus and S. aureus. After incubation, the absorbance of heme released from lysed RBCs was measured.
The MSC assay conditions were also reproduced to measure toxicity against RBCs. First, the minimum time required to obtain the MSC for DCAP treatment of C. crescentus (2 hours) and S. aureus (6 hours; data not shown) was determined.

B. subtilis cells = assay: Measurement of ΔΨ using DiOC2, flow cytometry; assay type: cell-based, Bacillus subtilis; settings: 20 minutes of treatment, p<0.001
Description: Fluorescence microscopy and flow cytometry to measure ΔΨ. The fluorescent probe, 3,3′-diethyloxacarbocyanine iodide (DiOC2) was used to measure ΔΨ in DMSO and in compound-treated cells. To eliminate the possibility of an interaction between the probe and compounds, the fluorescence intensity of solutions of DiOC2 was measured in the presence and absence of the compounds as described in the art. To measure ΔΨ in B. subtilis cells, flow cytometry was used. Cell suspensions were labeled with 30 μM DiOC2 and filtered through a Nylon filter containing 60-μm diameter pores. The fluorescence of these cells was measured using a BD LSR II flow cytometer. The following instrument settings were used for detection: low flow rate, 488 nm excitation laser, 530/30 nm emission filter for green fluorescence, and 575/26 nm emission filter for red fluorescence. […] First, a gate was drawn around the region where cells were detected in the forward versus side scatter area plot. Gating enabled the exclusion of any non-cellular materials in the sample that the instrument detected. The ratio of red-to-green fluorescence was calculated for each particle within the gate using the software, and the resulting data was exported to GraphPad Prism to create box plots shown in FIG. 5. Statistical parameters were calculated using the Kruskal-Wallis non-parametric one-way analysis of variation (GraphPad InStat). […]

S. aureus FRI 100 = assay: Minimum biofilm eradication concentration (MBEC); assay type: cell-based, Staphylococcus aureus; settings: S. aureus FRI 100 biofilm
Description: Determination of the minimum biofilm inhibitory concentration of growth (bMIC) and biofilm eradication concentration (MBEC). Overnight cultures of C. crescentus and S. aureus were grown and diluted 100-fold into appropriate nutrient media. Aliquots of the diluted suspension were transferred into wells of 96-well plates (150 μL/well). 2-fold serial dilutions were performed for compound-containing wells. For every experiment, three replicates for each compound concentration tested were included. After transferring aliquots of the suspension, the plates were closed with specialized lids that have protruding pins (Nunc STP System), and the plates were sealed using Parafilm®. The plates were incubated in a static incubator at 30° C. (C. crescentus) or 37° C. (S. aureus) for 24 hours. After the cells had formed biofilms on the surface of the pins, the pins were rinsed by dipping them in M2 (C. crescentus) or PBS (S. aureus) solutions. To rinse the pins, clean, sterile 96-well plates were used (aliquots of 200 μL/well); each rinse lasted 10 sec. After washing away planktonic cells loosely bound to biofilms, the pins were inserted into a 96-well plate that was pre-aliquoted with nutrient media containing antibiotics (2-fold dilutions, a final volume of 150 μL/well). The plates were sealed with Parafilm®, and incubated for 17 hours, and the bMIC was measured at the end of the incubation by visual inspection. After the bMIC run, the rinse steps were repeated to remove planktonic cells, and the pins were inserted into a 96-well plate that was pre-aliquoted with drug-free nutrient media (aliquots of 150 μL/well). The plates were sealed with Parafilm®, incubated for 24 hours, and the MBEC was measured at the end of the incubation by visual inspection.
After performing bMIC experiments, biofilms growing on the pins of the lid were transferred to nutrient media devoid of antibiotics to measure the minimum concentration of antibiotic that prevented planktonic growth from biofilms in antibiotic-free nutrient media (MBEC). […]

[2] = compounds at their MICs for C. crescentus and S. aureus, 17 hours

SMILES	Hemolysis of rabbit RBCs ([1]; MSC assay conditions, 2 hours (C. crescentus) and 6 hours (S. aureus))	Hemolysis of rabbit RBCs [1, 2]	Hemolysis of rabbit RBCs ([1]; higher concentrations of DCAP (i.e., 50 μM), 17 hours)	ΔΨ (λ576/λ530 of DiOC2) (B. subtilis cells)	MBEC (S. aureus FRI 100) [µM]	Hemolysis of rabbit RBCs ([1]; high concentration, MSC conditions for S. aureus (FIG. 8C))
OCC(CO)(CO)NCC(O)Cn1c2ccc(Cl)cc2c2cc(Cl)ccc21 (stereo not drawn) [DCAP, 2-((3-(3,6-dichloro-9H-carbazol-9-yl)-2-hydroxypropyl)amino)-2-(hydroxymethyl)propane-1,3-diol]	no significant toxicity	did not significantly disrupt RBC membranes	moderately toxic to RBCs	significant decrease in λ576/λ530	>200	
N#CC(C#N)=NNc1cccc(Cl)c1 [CCCP, carbonyl cyanide m-chlorophenyl hydrazone]		did not significantly disrupt RBC membranes		significant decrease in λ576/λ530	80	toxic to RBCs at a high concentration
